The NIST ThermoML archive (doi:10.1016/j.jct.2013.02.022)
± gives the expanded uncertainty stated by the source.

Key:
[1] = refractive index (Na D-line) (dimensionless); xn = mol fraction of the nth substance listed; conditions: 101 kPa, Liquid, Standard Abbe refractometry
[2] = xn = mol fraction of the nth substance listed; conditions: 101 kPa, Liquid, Vibrating tube method

CCCC(=O)[O-].C[NH2+]CCO [N-methyl-2-hydroxyethylammonium butanoate] + CCOC(C)=O
Conditions	mass density, [2] [kg/m3]	refractive index, [1]
303.15 K, x2 = 0	1035.87 ± 1.3	1.4534 ± 0.0009
303.15 K, x2 = 0.0454	–	1.4533 ± 0.0009
303.15 K, x2 = 0.0956	–	1.4511 ± 0.0009
303.15 K, x2 = 0.199	1013.58 ± 1.1	1.4472 ± 0.0008
303.15 K, x2 = 0.2901	1004.61 ± 1.1	1.4411 ± 0.0008
303.15 K, x2 = 0.412	–	1.4324 ± 0.0008
303.15 K, x2 = 0.507	981.19 ± 1	1.4246 ± 0.0008
303.15 K, x2 = 0.6018	–	1.4161 ± 0.0008
303.15 K, x2 = 0.7039	950.35 ± 1	1.4055 ± 0.0008
303.15 K, x2 = 0.8031	931.53 ± 1	1.3949 ± 0.0008
303.15 K, x2 = 0.8998	911.57 ± 1.1	1.3812 ± 0.0008
303.15 K, x2 = 0.9497	–	1.3746 ± 0.0008
303.16 K, x2 = 0.0454	1026.24 ± 1.3	–
303.16 K, x2 = 0.0956	1022.32 ± 1.2	–
303.16 K, x2 = 0.412	992.58 ± 1.1	–
303.16 K, x2 = 0.6018	967.06 ± 1	–
303.16 K, x2 = 0.9497	900.62 ± 1.1	–
308.15 K, x2 = 0	1032.53 ± 1.3	–
308.15 K, x2 = 0.0956	1018.71 ± 1.2	–
308.15 K, x2 = 0.199	1009.85 ± 1.1	–
308.15 K, x2 = 0.2901	1000.57 ± 1.1	–
308.15 K, x2 = 0.412	987.98 ± 1.1	–
308.15 K, x2 = 0.507	976.57 ± 1	–
308.15 K, x2 = 0.6018	962.31 ± 1	–
308.15 K, x2 = 0.7039	945.26 ± 1	–
308.15 K, x2 = 0.8031	926.08 ± 1	–
308.15 K, x2 = 0.8998	905.73 ± 1.1	–
308.16 K, x2 = 0.0454	1022.67 ± 1.3	–
308.16 K, x2 = 0.9497	894.58 ± 1.1	–
313.15 K, x2 = 0.0454	1019.09 ± 1.3	–
313.15 K, x2 = 0.0956	1015.1 ± 1.2	–
313.15 K, x2 = 0.6018	957.53 ± 1	–
313.16 K, x2 = 0	1029.14 ± 1.3	–
313.16 K, x2 = 0.199	1006.08 ± 1.1	–
313.16 K, x2 = 0.2901	996.56 ± 1.1	–
313.16 K, x2 = 0.412	983.25 ± 1.1	–
313.16 K, x2 = 0.507	971.82 ± 1	–
313.16 K, x2 = 0.7039	940.11 ± 1	–
313.16 K, x2 = 0.8031	920.58 ± 1.1	–
313.16 K, x2 = 0.8998	899.84 ± 1.1	–
313.16 K, x2 = 0.9497	888.5 ± 1.1	–
318.15 K, x2 = 0.9497	882.16 ± 1.1	–
318.16 K, x2 = 0	1025.72 ± 1.3	–
318.16 K, x2 = 0.0454	1015.66 ± 1.2	–
318.16 K, x2 = 0.0956	1011.66 ± 1.2	–
318.16 K, x2 = 0.199	1002.32 ± 1.1	–
318.16 K, x2 = 0.2901	992.61 ± 1.1	–
318.16 K, x2 = 0.412	978.49 ± 1.1	–
318.16 K, x2 = 0.507	967.05 ± 1	–
318.16 K, x2 = 0.6018	952.68 ± 1	–
318.16 K, x2 = 0.7039	934.92 ± 1	–
318.16 K, x2 = 0.8031	915.03 ± 1.1	–
318.16 K, x2 = 0.8998	893.91 ± 1.1	–
323.14 K, x2 = 0.0454	1012.2 ± 1.2	–
323.14 K, x2 = 0.0956	1007.98 ± 1.2	–
323.14 K, x2 = 0.199	998.56 ± 1.1	–
323.14 K, x2 = 0.2901	988.83 ± 1.1	–
323.14 K, x2 = 0.412	974.67 ± 1.1	–
323.14 K, x2 = 0.507	962.75 ± 1	–
323.14 K, x2 = 0.7039	929.55 ± 1	–
323.14 K, x2 = 0.8031	909.33 ± 1.1	–
323.14 K, x2 = 0.8998	887.92 ± 1.1	–
323.15 K, x2 = 0.6018	947.5 ± 1	–
323.15 K, x2 = 0.9497	876.1 ± 1.1	–
323.16 K, x2 = 0	1022.26 ± 1.3	–

CCCC(=O)[O-].C[NH2+]CCO [N-methyl-2-hydroxyethylammonium butanoate] + COC(C)=O
Conditions	mass density, [2] [kg/m3]	refractive index, [1]
288.14 K, x2 = 0.7912	977.2 ± 1	–
288.15 K, x2 = 0	1046 ± 1.3	1.4579 ± 0.0009
288.15 K, x2 = 0.0646	1040 ± 1.3	1.4558 ± 0.0009
288.15 K, x2 = 0.1097	1036.1 ± 1.2	1.4556 ± 0.0009
288.15 K, x2 = 0.2074	1027.3 ± 1.1	1.4509 ± 0.0008
288.15 K, x2 = 0.3079	1021.07 ± 1.1	1.4449 ± 0.0008
288.15 K, x2 = 0.3983	1015.6 ± 1.1	1.4399 ± 0.0008
288.15 K, x2 = 0.4973	1011.5 ± 1	1.4327 ± 0.0008
288.15 K, x2 = 0.5928	1003 ± 1	1.4232 ± 0.0008
288.15 K, x2 = 0.6898	991.4 ± 1	1.413 ± 0.0008
288.15 K, x2 = 0.7912	–	1.3996 ± 0.0008
288.15 K, x2 = 0.8979	–	1.3833 ± 0.0008
288.15 K, x2 = 0.898	959.7 ± 1	–
288.15 K, x2 = 0.9483	–	1.3746 ± 0.0008
288.16 K, x2 = 0.9483	950.1 ± 1	–
293.14 K, x2 = 0.0646	1036.4 ± 1.2	–
293.14 K, x2 = 0.1097	1032.5 ± 1.2	–
293.14 K, x2 = 0.9483	943.8 ± 1	–
293.15 K, x2 = 0	1042.6 ± 1.3	–
293.15 K, x2 = 0.2074	1024 ± 1.1	–
293.15 K, x2 = 0.3079	1017.3 ± 1.1	–
293.15 K, x2 = 0.3983	1011.4 ± 1.1	–
293.15 K, x2 = 0.4973	1007.2 ± 1	–
293.15 K, x2 = 0.5928	998.4 ± 1	–
293.15 K, x2 = 0.6898	986.5 ± 1	–
293.15 K, x2 = 0.7912	971.7 ± 1	–
293.15 K, x2 = 0.898	953.8 ± 1	–
298.14 K, x2 = 0.0646	1032.8 ± 1.2	–
298.14 K, x2 = 0.3983	1007.1 ± 1.1	–
298.14 K, x2 = 0.6898	981.5 ± 1	–
298.14 K, x2 = 0.7912	966.2 ± 1	–
298.14 K, x2 = 0.898	947.7 ± 1	–
298.14 K, x2 = 0.9483	937.5 ± 1	–
298.15 K, x2 = 0	1039.2 ± 1.3	–
298.15 K, x2 = 0.1097	1028.9 ± 1.2	–
298.15 K, x2 = 0.2074	1019.6 ± 1.1	–
298.15 K, x2 = 0.3079	1013.2 ± 1.1	–
298.15 K, x2 = 0.4973	1002.9 ± 1	–
298.15 K, x2 = 0.5928	993.7 ± 1	–
303.14 K, x2 = 0.0646	1029.1 ± 1.2	–
303.14 K, x2 = 0.2074	1015.8 ± 1.1	–
303.14 K, x2 = 0.3983	1002.8 ± 1.1	–
303.14 K, x2 = 0.4973	998.4 ± 1	–
303.14 K, x2 = 0.5928	989.1 ± 1	–
303.14 K, x2 = 0.6898	976.4 ± 1	–
303.14 K, x2 = 0.7912	960.7 ± 1	–
303.14 K, x2 = 0.898	941.6 ± 1	–
303.14 K, x2 = 0.9483	931.1 ± 1.1	–
303.15 K, x2 = 0	1035.9 ± 1.3	–
303.15 K, x2 = 0.1097	1025.2 ± 1.2	–
303.15 K, x2 = 0.3079	1009 ± 1.1	–
308.14 K, x2 = 0.0646	1025.6 ± 1.2	–
308.14 K, x2 = 0.2074	1013.3 ± 1.1	–
308.14 K, x2 = 0.3079	1004.8 ± 1.1	–
308.14 K, x2 = 0.3983	998.5 ± 1.1	–
308.14 K, x2 = 0.4973	992.6 ± 1	–
308.14 K, x2 = 0.6898	971.3 ± 1	–
308.14 K, x2 = 0.7912	955.1 ± 1	–
308.14 K, x2 = 0.898	935.5 ± 1	–
308.14 K, x2 = 0.9483	924.6 ± 1.1	–
308.15 K, x2 = 0	1032.5 ± 1.3	–
308.15 K, x2 = 0.1097	1021.6 ± 1.2	–
308.15 K, x2 = 0.5928	984.3 ± 1	–
313.14 K, x2 = 0.0646	1022 ± 1.2	–
313.14 K, x2 = 0.1097	1018 ± 1.2	–
313.14 K, x2 = 0.2074	1009.2 ± 1.1	–
313.14 K, x2 = 0.3079	1000.6 ± 1.1	–
313.14 K, x2 = 0.3983	994.2 ± 1.1	–
313.14 K, x2 = 0.4973	988.8 ± 1	–
313.14 K, x2 = 0.6898	966.1 ± 1	–
313.14 K, x2 = 0.7912	949.5 ± 1	–
313.14 K, x2 = 0.898	929.3 ± 1	–
313.14 K, x2 = 0.9483	918.1 ± 1.1	–
313.15 K, x2 = 0.5928	979.6 ± 1	–
313.16 K, x2 = 0	1029.1 ± 1.3	–
318.14 K, x2 = 0.1097	1014.3 ± 1.2	–
318.14 K, x2 = 0.3079	996.3 ± 1.1	–
318.14 K, x2 = 0.5928	974.8 ± 1	–
318.14 K, x2 = 0.898	923 ± 1	–
318.14 K, x2 = 0.9483	911.5 ± 1.1	–
318.15 K, x2 = 0.0646	1018.3 ± 1.2	–
318.15 K, x2 = 0.2074	1006.1 ± 1.1	–
318.15 K, x2 = 0.3983	989.8 ± 1.1	–
318.15 K, x2 = 0.4973	983.8 ± 1	–
318.15 K, x2 = 0.6898	961 ± 1	–
318.15 K, x2 = 0.7912	943.8 ± 1	–
318.16 K, x2 = 0	1025.7 ± 1.3	–
323.14 K, x2 = 0.1097	1010.6 ± 1.2	–
323.14 K, x2 = 0.5928	970 ± 1	–
323.15 K, x2 = 0.0646	1014.6 ± 1.2	–
323.15 K, x2 = 0.2074	1001.4 ± 1.1	–
323.15 K, x2 = 0.3079	992.33 ± 1.1	–
323.15 K, x2 = 0.3983	985.3 ± 1.1	–
323.15 K, x2 = 0.4973	979.2 ± 1	–
323.15 K, x2 = 0.6898	955.7 ± 1	–
323.15 K, x2 = 0.7912	938.1 ± 1	–
323.15 K, x2 = 0.898	916.7 ± 1.1	–
323.15 K, x2 = 0.9483	904.9 ± 1.1	–
323.16 K, x2 = 0	1022.3 ± 1.3	–
